From patent publication US11084826B2, “RSV antiviral pyrazolo- and triazolo-pyrimidine compounds” (Janssen Sciences Ireland Unlimited Company, priority 2015, dated 2021)

Assays:
rgRSV224 virus = test: Antiviral activity: inhibition of rgRSV224 (GFP-expressing RSV) replication in HeLa cells, GFP expression read-out; assay type: cell-based, respiratory syncytial virus (RSV); settings: human respiratory syncytial virus, HeLa, read-out: RSV HELA pEC50, rgRSV224 virus (MOI=1) in HeLa cells, GFP read-out (converted)
Summary of the method: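 EC50 is the 50% inhibitory concentration for GFP expression, read by laser microscopy three days after rgRSV224 infection (MOI=1) of HeLa cells (3,000/well). Compounds were tested as 9 serial 4-fold dilutions at 0.05% DMSO, and cells were incubated at 37° C under 5% CO2.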

[1] = Cytotoxicity in HeLa cells, ATP content measured with the ATPlite kit; assay type: cell-based; settings: human, TOX HELA pCC50

SMILES	melting point	EC50 (rgRSV224 virus)	CC50 at 3 days [1]
CCc1cc(C(=O)N2CCCCCC2C)nc2cc(-c3ccc(-c4cccnc4F)cc3F)nn12 (stereo not drawn) [Compound F8]	86 to 87 °C	2340 nM	> 25100 nM
CCc1cc(C(=O)N2CCCCCC2C)nc2cc(-c3ccc(-c4cnn(C)c4)cc3F)nn12 (stereo not drawn) [Compound F9]	65 to 67 °C	661 nM	> 25100 nM
CCc1cc(C(=O)N2CCCCCC2C)nc2cc(-c3ccc(-c4cn(C)c(C)n4)cc3F)nn12 (stereo not drawn) [Compound F10]	118 to 119 °C	692 nM	> 25100 nM
CCc1cc(C(=O)N2CCCCCC2C)nc2cc(-c3ccc(-c4ccc(C(=O)O)cn4)cc3F)nn12 (stereo not drawn) [Compound F14]	245 to 250 °C	182 nM	> 25100 nM
CCc1cc(C(=O)N2CCCCC[C@H]2C)nc2cc(-c3ccc(-c4ccc(C(=O)O)cn4)cc3F)nn12 [Compound F15]	181 to 182 °C	120 nM	> 25100 nM
CCc1cc(C(=O)N2CCCCCC2C)nc2cc(-c3ccc(-c4ncc(C)cn4)cc3F)nn12 (stereo not drawn) [Compound F17]	140 to 145 °C	646 nM	> 25100 nM
CCc1cc(C(=O)N2CCCCCC2C)nc2cc(-c3ccc(-c4nc(C)c(C(=O)O)s4)cc3F)nn12 (stereo not drawn) [Compound F18]	165 to 170 °C	200 nM	> 25100 nM
C[C@@H]1CCCCCN1C(=O)c1cc(C2(C)CC2)n2nc(-c3ccc(-c4ccc(C(=O)O)cn4)cc3F)cc2n1 [Compound F31]	257.89 °C	49 nM	32400 nM
CCc1cc(C(=O)N2CCCCCN2C)nc2cc(-c3ccc(-c4ccc(C(=O)O)cn4)cc3F)nn12 [Compound F35]	268.78 °C	162 nM	> 100000 nM
CCc1cc(C(=O)N2CCCCC[C@H]2C)nc2cc(-c3ccc4ccc(C(=O)O)cc4c3F)nn12 [Compound F36]	274.48 °C	46.8 nM	> 100000 nM
C[C@@H]1CCCCCN1C(=O)c1cc(C2CCC2)n2nc(-c3ccc4c(c3F)OCC(C(=O)O)=C4)cc2n1 [Compound F39]	230.94 °C	38.9 nM	44700 nM
CCc1cc(C(=O)N2CCCCC[C@H]2C)nc2cc(-c3ccc4c(C(=O)O)coc4c3F)nn12 [Compound F40]	213.87 °C	132 nM	52500 nM
CC(C)Cc1cc(C(=O)N2CCCCC[C@H]2C)nc2cc(-c3ccc(-c4ccc(C(=O)O)cn4)cc3F)nn12 [Compound F41]	197.2 °C	36.3 nM	22400 nM
CCc1cc(C(=O)N2CCCCCC2C)nc2cc(-c3ccc(B(O)O)cc3F)nn12 (stereo not drawn) [Compound G1]	195 to 200 °C	282 nM	> 25100 nM
CNc1cc(C(=O)N2CCCCCC2C)nc2cc(-c3ccc(C#N)cc3F)nn12 (stereo not drawn) [Compound H1]	219 to 220 °C	562 nM	> 25100 nM
CC1CCCCCN1C(=O)c1cc(N(C)C)n2nc(-c3ccc(C#N)cc3F)cc2n1 (stereo not drawn) [Compound H2]	194 to 195 °C	912 nM	> 25100 nM
CCc1cc(C(=O)N2CCCCC[C@H]2C)nc2cc(-c3ccc(C#N)cc3F)nn12 [Compound H4]	96 °C	661 nM	> 25100 nM
CCc1cc(C(=O)N2CCCCCC2C)nc2cc(-c3ccc(C#N)cc3F)nn12 (stereo not drawn) [Compound H5]	95 °C	813 nM	> 25100 nM
CCc1cc(C(=O)N2CCCCC[C@H]2C)nc2cc(-c3ccc(C(N)=O)cc3F)nn12 [Compound I1]	180 °C	53.7 nM	> 25100 nM
CCc1cc(C(=O)N2CCCCCC2C)nc2cc(-c3c(F)cc(C(N)=O)cc3F)nn12 (stereo not drawn) [Compound I27]	160 to 165 °C	251 nM	> 25100 nM
CCc1cc(C(=O)N2CCCCCC2C)nc2cc(-c3ccc(C(N)=O)nc3)nn12 (stereo not drawn) [Compound I28]	174 to 175 °C	1780 nM	> 25100 nM
CNc1cc(C(=O)N2CCCCCC2C)nc2cc(-c3ccc(C(N)=O)cc3F)nn12 (stereo not drawn) [Compound I29]	179 to 181 °C	295 nM	> 25100 nM
CC1CCCCCN1C(=O)c1cc(N(C)C)n2nc(-c3ccc(C(N)=O)cc3F)cc2n1 (stereo not drawn) [Compound I30]	215 to 216 °C	240 nM	> 25100 nM
CC1CCCCCN1C(=O)c1cc(C(F)(F)F)n2nc(-c3ccc(C(N)=O)cc3F)cc2n1 (stereo not drawn) [Compound I31]	238 to 240 °C	141 nM	> 25100 nM
CCc1cc(C(=O)N2CCn3cccc3C2C)nc2cc(-c3ccc(C(N)=O)cc3F)nn12 (stereo not drawn) [Compound I35]	242 °C	43.7 nM	> 25100 nM

SMILES	melting point	EC50 (rgRSV224 virus)	CC50 at 3 days [1]
CCc1cc(C(=O)N2CCc3c([nH]c4ccccc34)C2C)nc2cc(-c3ccc(C(N)=O)cc3F)nn12 (stereo not drawn) [Compound I38]	205 to 210 °C	1780 nM	> 25100 nM
CCc1cc(C(=O)N2CCCCCC2C)nc2c(F)c(-c3ccc(C(N)=O)cc3F)nn12 (stereo not drawn) [Compound J1]	173 °C	148 nM	> 25100 nM
CCc1cc(C(=O)N2CCCCCC2C)nc2c(F)c(-c3ccc(C(N)=O)cc3)nn12 (stereo not drawn) [Compound J2]	195 to 200 °C	263 nM	> 25100 nM
CCc1cc(C(=O)N2CCc3ccccc3C2C)nc2cc(-c3ccc(C(=O)O)cc3F)nn12 (stereo not drawn) [Compound K1]	165 to 170 °C	158 nM	> 25100 nM
CCc1cc(C(=O)N2CCCCCC2C)nc2cc(-c3ccc(C(=O)O)cc3F)nn12 (stereo not drawn) [Compound K2]	210 °C	562 nM	> 25100 nM
CCc1cc(C(=O)N2Cc3ccccc3CC2C)nc2cc(-c3ccc(C(=O)O)cc3F)nn12 (stereo not drawn) [Compound K3]	150 to 155 °C	1100 nM	> 25100 nM
CCc1cc(C(=O)N2CCCCCCC2C)nc2cc(-c3ccc(C(=O)O)cc3F)nn12 (stereo not drawn) [Compound K4]	133 to 134 °C	275 nM	> 25100 nM
CCc1cc(C(=O)N2CCCCC[C@H]2C)nc2cc(-c3ccc(C(=O)O)cc3F)nn12 [Compound K5]	148 °C	309 nM	> 25100 nM
CCc1cc(C(=O)N2CC(C)(C)c3ccccc3C2C)nc2cc(-c3ccc(C(=O)O)cc3F)nn12 (stereo not drawn) [Compound K6]	235 to 240 °C	2400 nM	> 25100 nM
CCc1cc(C(=O)N2CCCc3ccccc3C2C)nc2cc(-c3ccc(C(=O)O)cc3F)nn12 (stereo not drawn) [Compound K8]	105 to 110 °C	437 nM	> 25100 nM
CCc1cc(C(=O)N2CCn3cccc3C2C)nc2cc(-c3ccc(C(=O)O)cc3F)nn12 (stereo not drawn) [Compound K9]	155 to 160 °C	525 nM	> 25100 nM
CCc1cc(C(=O)N2CCCCCC2C)nc2cc(-c3ccc(C(=O)NC4CC4)cc3F)nn12 (stereo not drawn) [Compound L1]	196 °C	129 nM	> 25100 nM
CCc1cc(C(=O)N2CCCCCC2C)nc2cc(-c3ccc(C(=O)NCCN(C)C)cc3F)nn12 (stereo not drawn) [Compound L2]	178 °C	550 nM	> 25100 nM
CCCNC(=O)c1ccc(-c2cc3nc(C(=O)N4CCCCCC4C)cc(CC)n3n2)c(F)c1 (stereo not drawn) [Compound L3]	188 °C	240 nM	> 25100 nM
CCc1cc(C(=O)N2CCCCCC2C)nc2cc(-c3ccc(C(=O)NCCNC(C)=O)cc3F)nn12 (stereo not drawn) [Compound L4]	174 °C	234 nM	> 25100 nM
CCc1cc(C(=O)N2CCCCCC2C)nc2cc(-c3ccc(C(=O)NCCO)cc3F)nn12 (stereo not drawn) [Compound L5]	177 °C	158 nM	> 25100 nM
CCc1cc(C(=O)N2CCCCCC2C)nc2cc(-c3ccc(C(=O)NO)cc3F)nn12 (stereo not drawn) [Compound L6]	180 °C	148 nM	20400 nM
CCc1cc(C(=O)N2CCCCCC2C)nc2cc(-c3ccc(C(=O)NCc4ccco4)cc3F)nn12 (stereo not drawn) [Compound L7]	168 °C	240 nM	> 25100 nM
CCc1cc(C(=O)N2CCCCCC2C)nc2cc(-c3ccc(C(=O)NCc4cccs4)cc3F)nn12 (stereo not drawn) [Compound L8]	156 °C	324 nM	> 25100 nM
CCc1cc(C(=O)N2CCCCCC2C)nc2cc(-c3ccc(C(=O)NNCC4CC4)cc3F)nn12 (stereo not drawn) [Compound L9]	140 °C	372 nM	> 25100 nM
CCc1cc(C(=O)N2CCCCCC2C)nc2cc(-c3ccc(C(=O)NS(C)(=O)=O)cc3F)nn12 (stereo not drawn) [Compound L10]	194 °C	2690 nM	> 25100 nM
CCc1cc(C(=O)N2CCc3ccccc3C2C)nc2cc(-c3ccc(C(=O)NC(C)C(=O)O)cc3F)nn12 (stereo not drawn) [Compound L11]	165 to 170 °C	631 nM	> 25100 nM
CCc1cc(C(=O)N2CCCCCC2C)nc2cc(-c3ccc(/C=C/C(=O)O)cc3F)nn12 (stereo not drawn) [Compound M1]	205 to 210 °C	174 nM	> 25100 nM
CNc1cc(C(=O)N2CCCCC[C@H]2C)nc2cc(-c3ccc(/C=C/C(=O)O)cc3F)nn12 [Compound M3]	198 to 200 °C	251 nM	> 25100 nM
